According to US20240025924A1, “HETEROCYCLE SUBSTITUTED KETONE DERIVATIVE, AND COMPOSITION AND MEDICINAL USE THEREOF” (SHANGHAI HAIYAN PHARMACEUTICAL TECHNOLOGY CO., LTD., priority 2021, published 2024):

Assays:
SHP-2 enzyme = target: T1, SHP-2 enzyme (Homo sapiens, UniProt Q06124); assay: Phosphatase activity assay (Homogeneous Full Length SHP-2 Assay Kit, DiFMUP substrate); format: biochemical; conditions: full length SHP-2 activated with 0.5 μM SHP-2 activating Peptide; 1 hour co-incubation; DiFMUP 50 μM, 30 min
T1 construct: Homogeneous Full Length SHP-2 Assay Kit (BPS Bioscience #79330); purchased BPS Bioscience 79330
T1 sequence (Q06124 1-593): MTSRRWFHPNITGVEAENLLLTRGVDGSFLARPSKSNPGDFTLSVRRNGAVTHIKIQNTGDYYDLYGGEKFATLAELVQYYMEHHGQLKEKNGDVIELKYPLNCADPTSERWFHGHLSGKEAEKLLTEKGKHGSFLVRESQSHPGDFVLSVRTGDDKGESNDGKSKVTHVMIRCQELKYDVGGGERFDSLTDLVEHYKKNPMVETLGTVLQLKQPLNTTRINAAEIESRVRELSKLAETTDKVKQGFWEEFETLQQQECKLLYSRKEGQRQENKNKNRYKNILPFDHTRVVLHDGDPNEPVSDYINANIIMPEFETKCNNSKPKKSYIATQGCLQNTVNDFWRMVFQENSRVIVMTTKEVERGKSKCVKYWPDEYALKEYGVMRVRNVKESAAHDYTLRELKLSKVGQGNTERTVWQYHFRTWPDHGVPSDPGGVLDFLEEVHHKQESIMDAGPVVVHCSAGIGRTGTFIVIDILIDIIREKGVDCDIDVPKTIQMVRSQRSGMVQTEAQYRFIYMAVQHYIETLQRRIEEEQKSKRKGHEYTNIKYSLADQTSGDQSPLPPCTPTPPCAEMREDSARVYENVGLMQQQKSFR
Experimental: IC50 values were assayed using Homogeneous Full Length SHP-2 Assay Kit (BPS Bioscience #79330), which uses 6,8-difluoro-4-methylumbelliferone phosphate (DiFMUP) as the reaction substrate. SHP2 enzyme solution (diluted to 0.04 ng/μL with 1*buffer) was mixed with 0.5 μM SHP-2 activating Peptide in a 1*buffer solution containing 2.5 mM DTT to activate PTP. At the same time, DMSO (0.1% (V/V)) or the compounds (concentration: 0.5 nM to 1 μM) were added, mixed and co-incubated for 1 hour. DiFMUP (50 μM, total reaction system volume of 20 μL) was added, and the reaction was started. After 30 min of incubation, the fluorescence intensity of the reaction system (excitation wavelength: 350 nm, emission wavelength: 460 nm) was measured by Tecan Infinite M1000.

MV-4-11 cell = assay: Cell proliferation assay (Cell Titer-Glo); format: cell-based; conditions: Homo sapiens, MV4-11, 96 h, inhibition of MV-4-11 cell proliferation; Cell Titer-Glo on day 4
Experimental: MV 411 cells (20000 cells/well) were inoculated and cultured in 96 (Corning #3916) well plates, and the medium was 80 μL/well (IMDM with 10% fetal bovine serum (FBS), Gibco #10099-141C). After 24 hours of incubation, 20 μL of the compounds of the present invention configured to different concentrations (DMSO final concentration of 0.1% (V/V)) were added. On day 4, 60 μL of Cell Titer-Glo (Promega #G7558) was added to each well and mixed at 80 rpm, 25° C., 15 min, and the fluorescence values were detected by Victor X5 (PE).

SMILES	IC50 (SHP-2 enzyme) [nM]	IC50 (MV-4-11 cell) [nM]
Cc1cc2n(n1)CCCN2C(=O)c1ncc(N2CCC3(CC2)Cc2ccccc2C3N)nc1N (stereo not shown) [Compound 32]	28	–
Nc1nc(N2CCC3(CC2)Cc2cc(Cl)ccc2C3N)cnc1C(=O)N1CCc2ncccc21 (stereo not shown) [Compound 53]	4	192
Nc1ccc2c(n1)CCN2C(=O)c1ncc(N2CCC3(CC2)Cc2ccc(CO)cc2C3N)nc1N (stereo not shown) [Compound 66]	9	196
Nc1nc(N2CCC3(CC2)Cc2cc(C(F)(F)F)ccc2C3N)cnc1C(=O)N1CCCn2nccc21 (stereo not shown) [Compound 55]	50	–
Cc1nc(C(=O)N2CCc3nc(N)ccc32)c(N)nc1N1CCC2(CC1)Cc1ccc(F)cc1C2N (stereo not shown) [Compound 107]	9	119
Nc1nc(N2CCC3(CC2)Cc2ccccc2C3N)cnc1C(=O)N1Cc2cccnc2C1 (stereo not shown) [Compound 20]	17	–
Cc1ccc2c(c1)C(N)C1(CCN(c3ncc(C(=O)N4Cc5sc(N)nc5C(F)(F)C4)nc3CO)CC1)C2 (stereo not shown) [Compound 113]	6	< 5
Nc1nc(N2CCC3(CC2)Cc2ccccc2C3N)c(Cl)nc1C(=O)N1CCCn2ncc(Cl)c21 (stereo not shown) [Compound 31]	47	–
Nc1nc(N2CCC3(CC2)Cc2ccccc2C3N)c(Br)nc1C(=O)N1CCCn2ncc(Br)c21 (stereo not shown) [Compound 29]	43	–
Nc1ccc2c(c1)CCN2C(=O)c1ncc(N2CCC3(CC2)Cc2ccccc2C3N)nc1N (stereo not shown) [Compound 96]	4	157
Nc1nc(N2CCC3(CC2)Cc2ccccc2C3N)cnc1C(=O)N1CCn2nccc2C1 (stereo not shown) [Compound 37]	5	172
N#Cc1ccc2c(c1)C(N)C1(CCN(c3cnc(C(=O)N4CCCn5nccc54)c(N)n3)CC1)C2 (stereo not shown) [Compound 34]	6	56
Nc1nc(N2CCC3(CC2)Cc2ccc(F)cc2C3N)cnc1C(=O)N1CCCn2nccc21 (stereo not shown) [Compound 8]	5	111
Cn1cc(-c2ccc3c(n2)CCCN3C(=O)c2ncc(N3CCC4(CC3)Cc3ccccc3C4N)nc2N)cn1 (stereo not shown) [Compound 33]	29	285
Nc1nc(N2CCC3(CC2)Cc2ncccc2C3N)cnc1C(=O)N1CCCn2nccc21 (stereo not shown) [Compound 39]	36	–
Cn1cnc2c1CCCN2C(=O)c1ncc(N2CCC3(CC2)Cc2ccccc2C3N)nc1N (stereo not shown) [Compound 50]	14	241
Cc1nc(C(=O)N2CCc3nc(N)sc3C2)c(N)nc1N1CCC2(CC1)Cc1ccccc1C2N (stereo not shown) [Compound 85]	4	12
Nc1nc(N2CCC3(CC2)Cc2ccccc2C3N)cnc1C(=O)N1CCc2ncccc21 (stereo not shown) [Compound 7]	6	95
Nc1nc(N2CCC3(CC2)Cc2ccc(C(F)(F)F)cc2C3N)cnc1C(=O)N1CCCn2nccc21 (stereo not shown) [Compound 22]	6	78
Nc1ccc2c(n1)CCN2C(=O)c1cnc(N2CCC3(CC2)Cc2ccccc2C3N)c(CO)n1 (stereo not shown) [Compound 68]	7	125
NC1c2ccccc2CC12CCN(c1cnc(C(=O)N3CCCn4nccc43)cn1)CC2 (stereo not shown) [Compound 9]	59	–
Nc1nc(N2CCC3(CC2)Cc2c(F)cccc2C3N)c(F)nc1C(=O)N1CCCn2nccc21 (stereo not shown) [Compound 78]	10	218
Cn1c(N2CCC3(CC2)Cc2ccccc2C3N)nc(N)c(C(=O)N2CCCn3nccc32)c1=O (stereo not shown) [Compound 40]	59	59
Nc1ccc2c(n1)CCN2C(=O)c1ncc(N2CCC3(CC2)Cc2cccc(F)c2C3N)nc1N (stereo not shown) [Compound 90]	24	–
Nc1nc(N2CCC3(CC2)Cc2c(F)cccc2C3N)nnc1C(=O)N1CCCn2nccc21 (stereo not shown) [Compound 77]	11	150
Nc1nc(N2CCC3(CC2)Cc2ccccc2C3N)cnc1C(=O)N1CCCc2c(Cl)cccc21 (stereo not shown) [Compound 14]	22	–

SMILES	IC50 (SHP-2 enzyme) [nM]	IC50 (MV-4-11 cell) [nM]
Cc1ccc2c(c1)C(N)C1(CCN(c3nc(N)c(C(=O)N4CCc5nc(N)ccc54)nc3C)CC1)C2 (stereo not shown) [Compound 104]	10	58
N#Cc1cccc2c1CCCN2C(=O)c1ncc(N2CCC3(CC2)Cc2ccccc2C3N)nc1N (stereo not shown) [Compound 15]	13	170
Nc1ccc2c(n1)CCN2C(=O)c1ncc(N2CCC3(CC2)Cc2ccncc2C3N)nc1N (stereo not shown) [Compound 97]	10	–
Nc1nc(N2CCC3(CC2)Cc2ccccc2C3N)cnc1C(=O)N1CCCc2cccnc21 (stereo not shown) [Compound 12]	49	–
CC1CN(C(=O)c2ncc(N3CCC4(CC3)Cc3ccccc3C4N)nc2N)c2cccnc21 (stereo not shown) [Compound 57]	6	–
[2H]C1([2H])CN(C(=O)c2ncc(N3CCC4(CC3)Cc3ccc(C)cc3C4N)nc2N)Cc2sc(N)nc21 (stereo not shown) [Compound 123]	5	–
Cc1nc(N2CCC3(CC2)Cc2ccccc2C3N)c(CO)nc1C(=O)N1CCCn2nccc21 (stereo not shown) [Compound 43]	60	–
CC1(C)CN(C(=O)c2ncc(N3CCC4(CC3)Cc3ccccc3C4N)nc2N)c2cccnc21 (stereo not shown) [Compound 36]	18	–
NC(=O)c1nc(C(=O)N2CCCn3nccc32)cnc1N1CCC2(CC1)Cc1ccccc1C2N (stereo not shown) [Compound 23]	22	–
Cc1ccc2c(c1)C(N)C1(CCN(c3cnc(C(=O)N4Cc5sc(N)nc5C(F)(F)C4)c(N)n3)CC1)C2 (stereo not shown) [Compound 72]	–	12
Nc1nc(N2CCC3(CC2)Cc2sc(Cl)nc2C3N)cnc1C(=O)N1CCCn2nccc21 (stereo not shown) [Compound 25]	15	–
Nc1nc2c(s1)CN(C(=O)c1cnc(N3CCC4(CC3)Cc3ccccc3C4N)c(CO)n1)CC2(F)F (stereo not shown) [Compound 74]	–	6
CC1(C)Cc2nc(N)sc2CN1C(=O)c1ncc(N2CCC3(CC2)Cc2ccccc2C3N)nc1N (stereo not shown) [Compound 69]	–	49
CC1(C)Cc2nc(N)sc2CN1C(=O)c1ncc(N2CCC3(CC2)Cc2ccccc2C3N)nc1N (stereo not shown) [Compound 121]	9	–
COc1ccc2c(c1)C(N)C1(CCN(c3cnc(C(=O)N4Cc5sc(N)nc5C(F)(F)C4)c(N)n3)CC1)C2 (stereo not shown) [Compound 73]	–	19
Nc1nc(N2CCC3(CC2)Cc2cc(Cl)ccc2C3N)cnc1C(=O)N1CCCn2nccc21 (stereo not shown) [Compound 48]	4	–
[2H]C1([2H])CN(C(=O)c2ncc(N3CCC4(CC3)Cc3ccc(C)cc3C4N)nc2N)Cc2sc(N)nc21 (stereo not shown) [Compound 71]	–	16
Cc1ccc2c(c1)C(N)C1(CCN(c3cnc(C(=O)N4Cc5sc(N)nc5C(F)(F)C4)c(N)n3)CC1)C2 (stereo not shown) [Compound 124]	9	–
Cc1nc(N2CCC3(CC2)Cc2ccccc2C3N)c(CO)nc1C(=O)N1CCc2nc(N)ccc21 (stereo not shown) [Compound 111]	15	–
Cc1nc(N2CCC3(CC2)Cc2ccccc2C3N)c(C(N)=O)nc1C(=O)N1CCCn2nccc21 (stereo not shown) [Compound 44]	25	–
Nc1nc(N2CCC3(CC2)Cc2ccccc2C3N)cnc1C(=O)N1CCOc2cccnc21 (stereo not shown) [Compound 6]	83	–
CC(C)(O)c1ccc2c(c1)C(N)C1(CCN(c3cnc(C(=O)N4CCCn5nccc54)c(N)n3)CC1)C2 (stereo not shown) [Compound 56]	21	–
Nc1ccc2c(n1)CCCN2C(=O)c1ncc(N2CCC3(CC2)Cc2ccccc2C3N)nc1N (stereo not shown) [Compound 98]	26	–
Nc1nc(N2CCC3(CC2)Cc2ccccc2C3N)cnc1C(=O)N1CCOc2ncccc21 (stereo not shown) [Compound 11]	24	–
Nc1nc(N2CCC3(CC2)Cc2ccccc2C3N)cnc1C(=O)N1CCc2ncncc21 (stereo not shown) [Compound 51]	35	–
